Here are results for five compounds from patent publication US8648076B2, “Cysteine protease inhibitors and their therapeutic applications” (Hybrigenics SA, priority 2005, dated 2014).

For assay [1], the system named is HCT116 colon cancer cells. Kind of assay: HCT116 cell viability and proliferation assay (MTS). Format: cell-based. The note with it: HCT116 cells, 72 hours incubation, MTS, mean of 3 independent experiments, read-out: HCT116 D3 GI50.
For assay [2], the system named is PC-3 prostate cancer cells. As to the kind of experiment: PC3 cell viability and proliferation assay (MTS). The note with it: PC3 cells, 72 hours incubation, MTS, mean of 3 independent experiments, read-out: PC3 D3 GI50. Format: cell-based.
The target of another assay is T1, Uch-L3 (Homo sapiens, UniProt P15374).
T1 sequence (P15374 1-230): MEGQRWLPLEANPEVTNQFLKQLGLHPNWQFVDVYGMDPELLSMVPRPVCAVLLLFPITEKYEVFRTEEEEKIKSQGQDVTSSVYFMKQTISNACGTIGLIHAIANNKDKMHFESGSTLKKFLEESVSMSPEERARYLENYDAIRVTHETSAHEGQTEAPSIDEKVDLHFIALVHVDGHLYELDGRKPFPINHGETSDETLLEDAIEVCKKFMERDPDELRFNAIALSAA
Kind of assay: UCH-L3 activity assay. Format: biochemical. The note with it: 400 nM Ub-AMC, 13 pM enzyme, 30 min pre-incubation at 25° C., 60 min at 37° C.; sigmoidal fit; AF: Autofluorescent; read-out: Uch-L3 (inhibition of cysteine protease activity). The procedure:
Bovine Serum Albumin 0.05 mg·ml^−1 pH7.6). Compounds stocks (100 mM) were stored at −20° C. in DMSO. […] Reactions were performed as duplicates in Black LJL 96 well plates (HE microplates; Molecular Devices; 20 μl final reaction volume). The substrate concentration for Uch-L3 was 400 nM Ub-AMC (Boston Biochem). The concentration of the enzyme (Uch-L3) in specificity assays was 13 pM. The concentrations were determined in order to perform specificity assays under initial velocities at fixed substrate concentration. Compounds were pre-incubated with enzymes for 30 minutes at 25° C. Reactions were initiated by addition of substrate to the plates containing the enzymes (+/−compounds) diluted in assay buffer. Reactions were incubated for 60 minutes at 37° C. Reactions were stopped by adding acetic acid (100 mM final). Readings were performed on a Pherastar Fluorescent Reader (BMG). δ Emission 380 nm; δ Excitation=460 nm. Data (mean values+/− standard deviation) were analyzed as % of control (no compound) and plotted as percentage versus the Log of the compound concentration using GraphPad (Prism). Data were fitted to a sigmoidal model (variable slope).

Another assay concerns the target T2, USP7 (Homo sapiens, UniProt Q93009).
T2 construct: His tag (from pFastBac-HT vector) (N); made in house; host or cells: insect cells (Sf9 or High Five), baculovirus
As to the kind of experiment: USP7 activity assay. Format: biochemical. The note with it: 400 nM Ub-AMC, 152 pM enzyme, 30 min pre-incubation at 25° C., 60 min at 37° C.; sigmoidal fit; read-out: USP 7 (inhibition of cysteine protease activity).

The next assay addresses T3, USP8 (Homo sapiens, UniProt P40818).
T3 sequence (P40818 1-1118): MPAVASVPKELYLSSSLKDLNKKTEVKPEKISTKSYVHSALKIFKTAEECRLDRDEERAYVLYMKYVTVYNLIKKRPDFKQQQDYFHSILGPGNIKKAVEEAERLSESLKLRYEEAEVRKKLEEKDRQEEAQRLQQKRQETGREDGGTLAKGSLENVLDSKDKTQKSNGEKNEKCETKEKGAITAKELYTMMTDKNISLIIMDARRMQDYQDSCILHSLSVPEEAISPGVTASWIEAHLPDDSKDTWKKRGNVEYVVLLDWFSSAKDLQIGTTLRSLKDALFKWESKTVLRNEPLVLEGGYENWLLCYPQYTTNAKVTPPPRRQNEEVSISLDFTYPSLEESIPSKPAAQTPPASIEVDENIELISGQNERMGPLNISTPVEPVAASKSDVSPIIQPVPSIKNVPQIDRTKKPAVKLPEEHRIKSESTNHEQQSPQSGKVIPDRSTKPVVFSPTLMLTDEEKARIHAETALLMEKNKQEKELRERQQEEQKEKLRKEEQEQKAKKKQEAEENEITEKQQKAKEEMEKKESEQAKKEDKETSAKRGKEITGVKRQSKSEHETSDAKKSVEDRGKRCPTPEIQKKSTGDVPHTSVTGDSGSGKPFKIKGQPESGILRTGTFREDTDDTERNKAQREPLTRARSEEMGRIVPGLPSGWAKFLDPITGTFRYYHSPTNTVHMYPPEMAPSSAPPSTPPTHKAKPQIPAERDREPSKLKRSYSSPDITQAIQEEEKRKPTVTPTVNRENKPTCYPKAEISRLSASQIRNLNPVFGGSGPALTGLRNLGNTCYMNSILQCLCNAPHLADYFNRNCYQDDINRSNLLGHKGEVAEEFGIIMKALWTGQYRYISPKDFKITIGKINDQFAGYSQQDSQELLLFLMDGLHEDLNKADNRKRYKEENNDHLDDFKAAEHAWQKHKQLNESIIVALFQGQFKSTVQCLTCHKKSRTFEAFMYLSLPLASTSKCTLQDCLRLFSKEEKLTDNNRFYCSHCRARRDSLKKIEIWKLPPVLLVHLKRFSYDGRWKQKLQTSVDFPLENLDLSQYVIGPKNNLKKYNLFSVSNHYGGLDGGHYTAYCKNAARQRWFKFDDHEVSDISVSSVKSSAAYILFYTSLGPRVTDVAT
Kind of assay: USP8 activity assay. Format: biochemical. The note with it: 400 nM Ub-AMC, pH8.8, 30 min pre-incubation at 25° C., 60 min at 37° C.; sigmoidal fit; AF: Autofluorescent; read-out: USP 8 (inhibition of cysteine protease activity).

Read-outs that look alike come from different tables or passages of the source.

For orientation: GI50 means the concentration that inhibits growth by half.

T2 sequence (Q93009 whole entry): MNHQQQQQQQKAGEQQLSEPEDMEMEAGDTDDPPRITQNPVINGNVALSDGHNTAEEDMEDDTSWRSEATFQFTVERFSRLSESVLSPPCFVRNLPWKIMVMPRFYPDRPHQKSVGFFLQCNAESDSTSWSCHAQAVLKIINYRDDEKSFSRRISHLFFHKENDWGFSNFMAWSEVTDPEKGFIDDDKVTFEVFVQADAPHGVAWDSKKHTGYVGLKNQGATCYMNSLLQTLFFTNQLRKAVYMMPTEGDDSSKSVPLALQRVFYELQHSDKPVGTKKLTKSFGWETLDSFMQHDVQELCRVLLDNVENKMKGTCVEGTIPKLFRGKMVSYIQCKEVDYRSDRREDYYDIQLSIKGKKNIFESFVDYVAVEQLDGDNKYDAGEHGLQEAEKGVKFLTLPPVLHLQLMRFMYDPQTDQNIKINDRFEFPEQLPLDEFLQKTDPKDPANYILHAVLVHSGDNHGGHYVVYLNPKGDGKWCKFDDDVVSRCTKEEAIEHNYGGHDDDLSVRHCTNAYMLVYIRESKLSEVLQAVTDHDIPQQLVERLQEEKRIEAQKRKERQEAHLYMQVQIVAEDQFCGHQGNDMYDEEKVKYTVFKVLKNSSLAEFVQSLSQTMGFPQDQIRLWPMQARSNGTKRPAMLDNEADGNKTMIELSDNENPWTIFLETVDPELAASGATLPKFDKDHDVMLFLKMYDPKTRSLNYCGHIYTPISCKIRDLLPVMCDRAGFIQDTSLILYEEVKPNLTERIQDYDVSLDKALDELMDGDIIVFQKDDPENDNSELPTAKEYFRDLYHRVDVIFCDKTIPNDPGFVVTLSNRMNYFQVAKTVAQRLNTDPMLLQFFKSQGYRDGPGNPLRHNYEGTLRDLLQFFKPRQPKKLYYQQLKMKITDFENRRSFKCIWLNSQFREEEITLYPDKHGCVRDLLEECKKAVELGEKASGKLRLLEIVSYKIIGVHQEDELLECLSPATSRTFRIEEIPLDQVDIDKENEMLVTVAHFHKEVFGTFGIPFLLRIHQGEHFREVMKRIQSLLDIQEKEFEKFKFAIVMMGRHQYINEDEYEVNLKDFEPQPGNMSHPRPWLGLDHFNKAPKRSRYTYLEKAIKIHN

For `CON=C1c2cc(Cl)ccc2-c2nc(C#N)c(C#N)nc21` [Example 24a, 7-Chloro-9-methoxyimino-9H-indeno[1,2-b]pyrazine-2,3-dicarbonitrile], the GI50 in assay [1] (Homo sapiens, HCT-116) is 0.5 µM; in assay [2] (Homo sapiens, PC-3) it was 0.39 µM.

For the compound `N#Cc1nc2c(nc1C(N)=O)-c1ccccc1/C2=N\O` [Example 33, 2-cyano-9-[hydroxyimino]-9H-indeno[1,2-b]pyrazine-3-carboxylic acid amide], the IC50 on Uch-L3 turned out to be 0.596 µM; on USP7 it was 13 µM; on USP8, 0.733 µM. The results for the GI50 in assay [1] and in assay [2] were 1.6 µM and 1.2 µM, respectively.

As to `N#Cc1nc2c(nc1C#N)-c1cc(Cl)ccc1C2=O` [Example 25, 6-Chloro-9-oxo-9H-indeno[1,2-b]pyrazine-2,3-dicarbonitrile], the GI50 came to 0.19 µM in assay [1] (Homo sapiens, HCT-116) and 1.4 µM in assay [2] (Homo sapiens, PC-3).

For `COc1nc2c(nc1C#N)C(O)c1ccccc1-2` (stereo not shown) [Example 2, 9-hydroxy-3-methoxy-9H-indeno[1,2-b]pyrazine-2-carbonitrile], the GI50 is more than 10 µM in assay [1] (Homo sapiens, HCT-116) and more than 10 µM in assay [2] (Homo sapiens, PC-3, 72 h).

On to `C=CCON=C1c2cc(Cl)ccc2-c2nc(C#N)c(C#N)nc21` [Example 24b, 9-Allyloxyimino-7-chloro-9H-indeno[1,2-b]pyrazine-2,3-dicarbonitrile], for which the GI50 in assay [1] (Homo sapiens, HCT-116) was 0.94 µM; in assay [2] (Homo sapiens, PC-3), 0.62 µM.
